Measurements: US9193756B2, “Adrenomedullin production enhancer” (National University Corporation ASAHIKAWA MEDICAL COLLEGE, priority 2008, dated 2015)

Key:
distal colon blood flow [1] = assay: Blood flow-increasing effects of components in crude drugs (1): hydroxysanshool, ginsenosides; format: in vivo, rat; conditions: for Rate of increase in VC: into the colon, mg/kg: H-sanshool 0.3, ginseng 30, ginsenoside Rb1 1, ginsenoside Rg1 1, mean
Protocol: Male SD rats (8 to 10 weeks of age, body weight 240 to 360 g) were used (n=2 to 6). Hydroxy-β-sanshool, ginsenoside Rb1, or ginsenoside Rg1 was added to a 1% aqueous solution of Tween 80 to obtain concentrations of 0.06 mg/mL, 0.2 mg/mL, and 0.2 mg/mL, respectively, and the resulting solutions were used as the respective test specimens for administration of individual crude drug components. Furthermore, test specimens for the administration of hydroxysanshool with a ginseng extract, ginsenoside Rb1, or ginsenoside Rg1 in combination were prepared by adding, to a 1% aqueous solution of Tween 80, hydroxysanshool at a concentration of 0.06 mg/mL, and a powdered ginseng extract, ginsenoside Rb1, or ginsenoside Rg1 at a concentration of 6 mg/mL, 0.2 mg/mL, or 0.2 mg/mL, respectively. After preliminarily placing an 18 G Surflo indwelling needle inserted through the caecum, 5 mL/kg portions of test specimens which had been kept warm at 37° C. were administered into the colon 0.5 to 1 hour later, by which time baseline blood flow had stabilized. A control group was administered a 1% aqueous solution of Tween 80.
A polyethylene tube with an inner diameter of 0.8 mm was inserted through the left common carotid artery of an anesthetized rat, and the tip was left indwelling in the left ventricle. A tracheal cannula was placed indwelling in the trachea and connected to a respirator (SN-480-7); artificial respiration was then performed at a frequency of 60 RPM. Body temperature was maintained at 37±0.5° C. by a temperature controller (NS-TC10). […] The results of measurement are expressed as the mean value±standard error (S.E.M.). Comparison of effects was performed by one-way analysis of variance (ANOVA), followed by the Scheffe multiple comparison test. A risk rate of 5% or less was employed as the significance level.

distal colon blood flow [2] = assay: Blood flow-increasing effects of components in crude drugs (2): 6-shogaol; format: in vivo, rat; conditions: for Rate of increase in VC: into the colon, mg/kg: 6-shogaol 2, ginsenoside Rb1 1
Protocol: Male SD rats (8 to 10 weeks of age) were used. 6-Shogaol was added to a 1% aqueous solution of Tween 80 to obtain a concentration of 0.4 mg/mL, and the resulting solution was used as a test specimen. Furthermore, ginsenoside Rb1 and 6-shogaol were added to a 1% aqueous solution of Tween 80 at concentrations of 0.2 mg/mL and 0.4 mg/mL, respectively, to prepare test specimens. After preliminarily placing an 18 G Surflo indwelling needle inserted through the caecum, 5 mL/kg portions of test specimens which had been kept warm at 37° C. were administered into the colon 0.5 to 1 hour later, by which time baseline blood flow had stabilized. A control group was administered 1% aqueous solution of Tween 80.
A polyethylene tube with an inner diameter of 0.8 mm was inserted through the left common carotid artery of an anesthetized rat, and the tip was left indwelling in the left ventricle. A tracheal cannula was placed indwelling in the trachea and connected to a respirator (SN-480-7); artificial respiration was then performed at a frequency of 60 RPM. Body temperature was maintained at 37±0.5° C. by a temperature controller (NS-TC10).

In the case of CC(C)=CCC[C@](C)(O[C@@H]1O[C@H](CO[C@@H]2O[C@H](CO)[C@@H](O)[C@H](O)[C@H]2O)[C@@H](O)[C@H](O)[C@H]1O)[C@H]1CC[C@]2(C)[C@@H]1[C@H](O)C[C@@H]1[C@@]3(C)CC[C@H](O[C@@H]4O[C@H](CO)[C@@H](O)[C@H](O)[C@H]4O[C@@H]4O[C@H](CO)[C@@H](O)[C@H](O)[C@H]4O)C(C)(C)[C@@H]3CC[C@]12C [Ginsenoside Rb1, ginsenoside Rb1], the “Rate of increase in VC” value (distal colon blood flow [1]; 15 min) is reported as 11.72%, the “Rate of increase in VC” value (distal colon blood flow [1]; 30 min) is reported as 18.87% and the “Rate of increase in VC” value (distal colon blood flow [1]; 45 min) is reported as 60.21%. For the same molecule, the “Rate of increase in VC” value (distal colon blood flow [1]; 60 min) was 26.20%, the “Rate of increase in VC” value (distal colon blood flow [1]; 75 min) was 40.81% and the “Rate of increase in VC” value (distal colon blood flow [1]; 90 min) was 19.98%.
For CCCCC/C=C/C(=O)CCc1ccc(O)c(OC)c1 [6-Shogaol, 6-shogaol], the “Rate of increase in VC” value (distal colon blood flow [2]; 15 min) was 58.32%, the “Rate of increase in VC” value (distal colon blood flow [2]; 30 min) was 61.20% and the “Rate of increase in VC” value (distal colon blood flow [2]; 45 min) was 53.07%. For the same molecule, the “Rate of increase in VC” value (distal colon blood flow [2]; 60 min) was 42.55%, the “Rate of increase in VC” value (distal colon blood flow [2]; 75 min) was 46.68% and the “Rate of increase in VC” value (distal colon blood flow [2]; 90 min) was 32.92%. For the same molecule, the “Blood flow increase (in words)” value (distal colon blood flow [2]; Example 5, administration into the colon) was “induced an increase in blood flow” and the “Time of peak increase in blood flow” value (distal colon blood flow [2]; after administration into the colon) was 30 min.
For CC(C)=CCC[C@](C)(O[C@@H]1O[C@H](CO)[C@@H](O)[C@H](O)[C@H]1O)[C@H]1CC[C@]2(C)[C@@H]1[C@H](O)C[C@@H]1[C@@]3(C)CC[C@H](O)C(C)(C)[C@@H]3[C@@H](O[C@@H]3O[C@H](CO)[C@@H](O)[C@H](O)[C@H]3O)C[C@]12C [Ginsenoside Rg1, ginsenoside Rg1], the “Rate of increase in VC” value (distal colon blood flow [1]; 15 min) was −10.83%, the “Rate of increase in VC” value (distal colon blood flow [1]; 30 min) was 5.84% and the “Rate of increase in VC” value (distal colon blood flow [1]; 45 min) was 16.29%. The “Rate of increase in VC” value (distal colon blood flow [1]; 60 min) was 10.92%, the “Rate of increase in VC” value (distal colon blood flow [1]; 75 min) was 12.25% and the “Rate of increase in VC” value (distal colon blood flow [1]; 90 min) was 18.11%.
C/C=C/C=C/C=C/CC/C=C/C(=O)NCC(C)(C)O [H-sanshool, Hydroxy-β-sanshool] was tested, and the “Rate of increase in VC” value (distal colon blood flow [1]; 15 min) was 3.89%, the “Rate of increase in VC” value (distal colon blood flow [1]; 30 min) was 5.79% and the “Rate of increase in VC” value (distal colon blood flow [1]; 45 min) was 2.09%. The “Rate of increase in VC” value (distal colon blood flow [1]; 60 min) was 9.46%, the “Rate of increase in VC” value (distal colon blood flow [1]; 75 min) was 8.58% and the “Rate of increase in VC” value (distal colon blood flow [1]; 90 min) was 4.19%. The “Blood flow / VC increase (in words)” value (distal colon blood flow [1]; Example 4, administration into the colon) was “did not increase blood flow”.
